Like-named read-outs stand apart in the source and are kept apart here. Ends that are not written are not given here.
Key:
[1] = target: T1, purified H-2 D^b molecules (Mus musculus, UniProt P01899); assay: MHC peptide-binding assay, purified H-2 D^b
T1 construct: made in house
Description: (§1) Briefly, 0.1-1 nM of radiolabeled peptide was co-incubated at room temperature with 1 μM to 1 nM of purified MHC in the presence of 1-3 μM human β2-microglobulin (Scripps Laboratories) and a mixture of protease inhibitors. After a 2 day incubation, binding of the radiolabeled peptide to the corresponding MHC class I molecule was determined by capturing MHC/peptide complexes on Lumitrac 600 microplates (Greiner Bio-One) coated with either the Y3 (anti-H-2 K^b) or 28-14-8S (anti-H-2 D^b, L^d and D^q) Ab, followed by measurement of bound counts per minute (cpm) using the TopCount microscintillation counter (Packard).

[2] = target: T2, purified H-2 K^b molecules (Mus musculus, UniProt P01901); assay: MHC peptide-binding assay, purified H-2 K^b
T2 construct: made in house
Description: as §1, with “MHC purification and quantitative assays to measure the binding affinity of peptides to purified H-2 K^b and H-2 D^b molecules were performed as previously described (Sidney et al., Curr Protoc Immunol 18:1813 2001); Vitiello et al., J Immunol 157:5555 (1996)). Briefly,” for “Briefly,”
To confirm the MHC class I restriction of the 12 identified epitopes, measurements were performed of their MHC binding capacity using purified K^b and D^b molecules in an in vitro binding assay. Seven of the 12 epitopes bound the predicted allele with either high or intermediate affinity, as indicated by an IC50 of <50 nM or <500 nM, respectively. The five remaining epitopes also bound with biologically relevant affinities in the 500-2000 nM range.

CD8^+ T cells [3] = assay: IFN-γ ELISPOT with CD8^+ T cells of DENV2-infected C57BL/6 mice; assay type: cell-based; conditions: PL046 or S221 infected C57BL/6 mice
CD8^+ T cells [4] = assay: IFN-γ ELISPOT, HLA A*0201 transgenic mice; assay type: cell-based; conditions: HLA-A*0201-restricted Jurkat cells as APC, peptide 1 μg/ml, day 7 after 10^11 GE S221
Description: The proteome of the DENV2 strain, S221, was inspected for the presence of peptides predicted to bind HLA A*0201 with high affinity. A total of 68 potential H-2^b binding peptides were identified. HLA A*0201 transgenic mice were infected i.v. with 10^11 GE of the DENV2 strain, S221. Seven days post-infection, splenocytes were harvested and CD8^+ T cells isolated. CD8^+ T cells (1.75×10^5) were stimulated with HLA-A*0201-restricted Jurkat cells and 1 μg/ml of individual S221-derived A*02-predicted binding peptides, and IFN-γ ELISPOT was performed. The data are expressed as the mean number of net spot-forming cells (SFC) per 10^6 CD8^+ T cells. The top 20 predicted epitopes, which includes the two positive peptides identified (indicated with an asterisk), are shown. The criteria for positivity were a stimulation index of ≧2.0, p<0.05 when compared with an irrelevant control peptide, and net SFC/10^6 cells of ≧20.
The proteome of the DENV2 strain, S221, was inspected for the presence of peptides predicted to bind HLA A*0201 with high affinity. A total of 68 potential H-2^b binding peptides were identified. HLA A*0201 transgenic mice were infected intravenously (i.v.) with 10^11 GE of the DENV2 strain, S221. […] Referring to FIG. 11, the data are expressed as the mean number of net spot-forming cells (SFC) per 10^6 CD8^+ T cells. […]

CD8^+ T cells [5] = assay: Intracellular cytokine staining (IFN-γ), splenocytes of S221-infected wild-type mice; assay type: cell-based, C57BL/6 mice; conditions: wild-type C57BL/6, day 7 after 10^11 GE S221, peptide 0.1 μg/ml, 5 h
Description: (§2) All Ab were purchased from eBioscience with the exception of anti-CD8α-PerCP and anti-CD107a-FITC which were obtained from BD Biosciences. RBC in blood were lysed using RBC lysis buffer (eBioscience). For surface staining, splenocytes or blood cells were washed, incubated with supernatant from 2.4G2-producing hybridoma cells to block Fc receptors, and labeled with anti-CD8α-PerCP, anti-CD44-APC, and anti-CD62L-PE. For intracellular cytokine staining, 10^6 splenocytes or 10^5 blood cells were plated in 96-well U-bottom plates and stimulated with individual DENV peptides (0.1 μg/ml) in the presence of brefeldin A (GolgiPlug, BD Biosciences) for 5 h. For CD107a staining, CD107a-FITC (or rat IgG2a-FITC) was added to the wells at the same time as the peptide. Cells were washed, incubated with 2.4G2 supernatant, labeled with anti-CD8α-PerCP, fixed and permeabilized using the BD Cytofix/Cytoperm Kit, and stained with anti-IFN-γ-APC and anti-TNF-α-PE. Samples were read on a FACS Caliber (BD Biosciences) and analyzed using FloJo software (Tree Star, Inc.)
To confirm that the IFN-γ response to the MHC class I-binding DENV peptides was mediated by CD8^+ T cells, intracellular cytokine staining (ICS) on CD8^+ T cells isolated from S221-infected wild-type mice was performed. Splenocytes were harvested from C57BL/6 mice 7 days after infection with 10^11 genomic equivlalents (GE) S221 and were re-stimulated in vitro with individual DENV2 peptides or an irrelevant peptide (irr) at 0.1 μg/ml in the presence of brefeldin A for 5 h. Cells were then stained for surface CD8 and intracellular IFN-γ and analyzed by flow cytometry. […] The percent of CD8^+ T cells producing IFN-γ is indicated. Referring to FIG. 2B, the figure is a summary of the DENV2-specific CD8^+ IFN-γ^+ response. The response to the irrelevant control peptide was subtracted from the responses to each DENV2 peptide. Each symbol represents one mouse and the bar represents the geometric mean. The identification of the 12 positive peptides for S221 was confirmed by the intracellular cytokine staining (ICS) (FIG. 2A), and the response to the 8 most dominant peptides was determined (FIG. 2B). The responses ranged from 0.14% recognizing NS2A 36 to 9.8% of CD8^+ T cells recognizing NS4B 99.
Splenocytes were harvested from naïve C57BL/6 mice or mice 7 days after infection with 10^11 GE of S221. The percent of CD8^+ T cells expressing CD44 and CD62L was determined in four independent studies (FIG. 3A). On day 7 after infection, splenocytes were stimulated with the eight major DENV2 peptides (individually; at 0.1 μg/ml) in the presence of brefeldin A, and stained for surface CD8 and intracellular IFN-γ. The percent of CD8^+ T cells producing IFN-γ in response to the irrelevant control peptide was subtracted from the response to each DENV2 peptide to determine the net response. The net responses to the eight major DENV2 peptides were added to determine the percent of DENV2-specific CD44^hi, CD62^lo, and CD44^hiCD62L^lo CD8^+ T cells (FIG. 3B). The data are expressed as the mean percent±SEM of 11-14 mice tested in at least four independent experiments.

CD8^+ T cells [6] = assay: Intracellular cytokine staining (IFN-γ), splenocytes of S221-infected IFN-α/βR^−/− mice; assay type: cell-based; conditions: day 7 after 10^10 GE S221
Description: as §2
The S221-specific CD8^+ T cell response in the IFN-α/βR^−/− mice was studied. […]
The S221-specific CD8^+ T cell response in IFN-α/βR^−/− mice was further studied. […] Referring to FIGS. 5C, 5E and 5F, the number of splenic CD8^+ T cells in naïve (n=4) and infected (n=7) mice was measured (results described above). […] The data are expressed as the percent±SEM of seven mice tested in three independent experiments.
The initial epitope identification studies were performed in wild-type mice. […] Cells were then stained for surface CD8 and intracellular IFN-γ and analyzed by flow cytometry. […] Results are expressed as the mean±SEM of 13 wild-type and 7 IFN-α/βR^−/− mice were tested in at least three independent experiments. Referring FIGS. 8C and D, the figures show kinetics of the DENV-specific CD8^+ T cell response as determined by the study. […]

[7] = test system: DENV peptide-pulsed target cells; assay: In vivo cytotoxicity assay; conditions: IFN-α/βR^−/− mice infected 7 days previously with 10^10 GE S221; 4 h after i.v. transfer; targets pulsed 0.5 μg/ml
CD8^+ T cells [8] = assay: TNF-α and CD107a staining after peptide re-stimulation; assay type: cell-based, wild-type or IFN-α/βR^−/− mice; conditions: splenocytes day 7 after S221 infection
Description: as §2
Because polyfunctional CD8^+ T cell responses are associated with protection (Harari et al., Immunol Rev 211:236 (2006)), the phenotype of the DENV-specific CD8^+ T cells in wild-type and IFN-α/βR^−/− mice was studied in more detail by measuring CD107a expression (CD107a, or LAMP-1, is expressed on the cell surface upon degranulation) and TNF-α production for two of the DENV-specific CD8^+ T cell populations, as described above. To collect the data, splenocytes harvested from wild-type or IFN-α/βR^−/− mice 7 days after infection with 10^11 or 10^10 GE of S221, respectively, were re-stimulated in vitro with C51-59, NS4B99-107, or an irrelevant peptide. An anti-CD107a Ab was added for the duration of the stimulation. Cells were then stained for surface CD8, intracellular IFN-γ and TNF-α, and analyzed by flow cytometry.

[9] = purified MHC, radiolabeled peptide competition, read-out: Binding affinity (IC50 nM) H2-D^b
[10] = purified MHC, radiolabeled peptide competition, read-out: Binding affinity (IC50 nM) H2-K^b

T2 sequence (P61769 21-119): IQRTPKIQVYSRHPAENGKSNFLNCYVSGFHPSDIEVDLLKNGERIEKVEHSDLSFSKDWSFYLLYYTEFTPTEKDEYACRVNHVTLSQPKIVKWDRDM
T2 sequence (P01901 22-369): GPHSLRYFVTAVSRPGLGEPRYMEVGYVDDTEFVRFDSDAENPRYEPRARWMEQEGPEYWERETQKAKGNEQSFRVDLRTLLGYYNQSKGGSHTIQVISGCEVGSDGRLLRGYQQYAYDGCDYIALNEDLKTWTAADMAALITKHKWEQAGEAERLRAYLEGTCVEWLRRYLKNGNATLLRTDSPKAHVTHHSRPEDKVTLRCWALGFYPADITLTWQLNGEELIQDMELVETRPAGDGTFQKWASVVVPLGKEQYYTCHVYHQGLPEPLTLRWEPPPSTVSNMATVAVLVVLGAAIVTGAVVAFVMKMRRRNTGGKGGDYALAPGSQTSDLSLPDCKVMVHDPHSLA
T1 sequence (P61769 21-119): as the sequence (P61769 21-119) above
T1 sequence (P01899 25-362): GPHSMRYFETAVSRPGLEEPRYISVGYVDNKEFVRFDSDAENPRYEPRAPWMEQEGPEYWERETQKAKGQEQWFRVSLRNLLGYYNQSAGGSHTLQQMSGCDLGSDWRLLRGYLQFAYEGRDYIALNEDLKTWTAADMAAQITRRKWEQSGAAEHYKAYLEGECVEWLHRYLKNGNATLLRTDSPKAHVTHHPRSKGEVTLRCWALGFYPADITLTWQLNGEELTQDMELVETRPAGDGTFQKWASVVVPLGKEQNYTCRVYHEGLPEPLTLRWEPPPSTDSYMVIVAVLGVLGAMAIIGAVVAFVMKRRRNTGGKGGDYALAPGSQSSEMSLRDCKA

Sequence | IC50 [1, 9] | IC50 [2] | IFN-γ ELISPOT response (net SFC per 10^6 CD8^+ T cells), in words (CD8^+ T cells [3]) | IC50 [2, 10] | also measured
FSLGVLGM [NS2A8-15] | 1800 nM | > 2000 nM | highest responses |  | 
GMLQGRGPL [Epitope C36-44] | 820 nM |  |  | 1340 nM | 
KLAEAIFKL (listed as Dengue virus) |  |  |  |  | IFN-γ ELISPOT positivity (CD8^+ T cells [4]): positive
LAVTIMAIL [NS2A145-153] | 644 nM | > 2000 nM |  |  | 
MTMRCIGI [Epitope E-2-6] |  |  | highest responses | 1080 nM | IC50 [1]: > 2000 nM
RALIFILL [Epitope M60-67] |  |  |  | 22 nM | IC50 [1]: > 2000 nM; percent of CD8^+ T cells producing IFN-γ / recognizing the peptide (CD8^+ T cells [5]): 0.4%; % of splenic CD8^+ T cells recognizing the peptide (CD8^+ T cells [6]): 11%
RLITVNPIV |  |  |  |  | IFN-γ ELISPOT positivity (CD8^+ T cells [4]): positive
RMLINRFTM [NS5237-45] | 21 nM | > 2000 nM | highest responses |  | percentage killing of peptide-pulsed target cells [7]: 46%
TAIANQATV [NS4B66-74] | 1.3 nM | > 2000 nM |  |  | 
VAFLRFLTI [Epitope C51-59] | 1380 nM |  | highest responses | 20 nM | CD107a surface expression (degranulation) (CD8^+ T cells [8]): expressed CD107a on the surface; TNF-α production by peptide-specific CD8^+ T cells (CD8^+ T cells [8]): produced TNF-α
VAVSFVTLI [NS2A36-44] | 997 nM |  |  | 12 nM | percent of CD8^+ T cells producing IFN-γ / recognizing the peptide (CD8^+ T cells [5]): 0.14%
VSWTMKIL [Epitope E451-458] |  |  |  |  | IC50 [1]: > 2000 nM

Source: US20110150914A1, “COMPOSITIONS AND METHODS FOR DENGUE VIRUS (DV) TREATMENT AND VACCINATION” (priority 2008, published 2011)
